From patent US12522606B2, “Modified pyrrolo- and pyrazolo-pyrimidines for prostate cancer therapy” (University of Washington, priority 2020, dated 2026)

Tests used:
PC3 = assay: MTT proliferation assay, PC3; details: Homo sapiens; for EC50: read-out: EC50 PC3; for inhibition at 10 µM: PC-3, read-out: MTT % inhib @ 10 μM PC3
LNCaP95 = assay: MTT proliferation assay, LNCaP95; type: cell-based; details: Homo sapiens, LNCaP-95; for EC50: Table 1, LNCaP95 (AR+ PCa), unit inferred; for inhibition at 10 µM: read-out: MTT % inhib @ 10 μM LNCaP95
Description: Anti-tumor activity was determined by screening a series of compounds against the castrate-resistant, androgen-receptor-positive, prostate cancer cell line LNCaP95. […] Inhibition of proliferation was determined based on the level of LNCaP95 cell growth suppression using an MTT assay (NAD(P)H-dependent cellular oxidoreductase enzymatic activities)) read at 72 and 96 hours after addition of the compounds. […] Each cell line was be tested in quadruplicate.

SMILES | EC50 (PC3) [µM] | EC50 (LNCaP95) [µM] | inhibition at 10 µM (PC3) [%] | inhibition at 10 µM (LNCaP95) [%]
CC(C)(O)Cn1cc(-c2ccc3cc(OC4CC4)ccc3c2)c2c(NCCO)ncnc21 [Example 26, 1-(5-(6-cyclopropoxynaphthalen-2-yl)-4-(2-hydroxyethylamino)-7H-pyrrolo[2,3-d]pyrimidin-7-yl)-2-methylpropan-2-ol] | > 20 | 5 | 9.2 | 40.6
CCOc1ccc2cc(-c3cn(CC(C)(C)O)c4ncnc(NCCO)c34)ccc2c1 [Example 25, 1-(5-(6-ethoxynaphthalen-2-yl)-4-(2-hydroxyethylamino)-7H-pyrrolo[2,3-d]pyrimidin-7-yl)-2-methylpropan-2-ol] | > 20 | 5 | 10.3 | 34.6
CCOCCNc1ncnc2c1c(-c1ccc(-c3ccc(OC)cc3)cc1)cn2CC(C)(C)O [Example 38, 1-(4-(2-ethoxyethylamino)-5-(4′-methoxybiphenyl-4-yl)-7H-pyrrolo[2,3-d]pyrimidin-7-yl)-2-methylpropan-2-ol] | > 20 | 4 | 11.6 | 39.5
CCOc1ccc2cc(-c3cn(CC(C)(C)O)c4ncnc(NC(C)C)c34)ccc2c1 [Example 44, 1-(5-(6-ethoxynaphthalen-2-yl)-4-(isopropylamino)-7H-pyrrolo[2,3-d]pyrimidin-7-yl)-2-methylpropan-2-ol] | 20 | 5 |  | 
CCOCCNc1ncnc2c1c(-c1ccc3cc(OC4CC4)ccc3c1)cn2CC(C)(C)O [Example 35, 1-(5-(6-cyclopropoxynaphthalen-2-yl)-4-(2-ethoxyethylamino)-7H-pyrrolo[2,3-d]pyrimidin-7-yl)-2-methylpropan-2-ol] | > 20 | 4 | 16.5 | 27.1
C#CCCC1(CCOC(=O)NCCNc2ncnc3c2c(-c2ccc4cc(OCC)ccc4c2)cn3CC(C)(C)O)N=N1 [Example 10, 2-(3-(but-3-ynyl)-3H-diazirin-3-yl)ethyl 2-(5-(6-ethoxynaphthalen-2-yl)-7-(2-hydroxy-2-methylpropyl)-7H-pyrrolo[2,3-d]pyrimidin-4-ylamino)ethylcarbamate] | > 20 | 2 |  | 
CC(C)(O)Cn1cc(-c2ccc3cc(OC4CC4)ccc3c2)c2c(NCCOCCN)ncnc21 [Example 27, 1-(4-(2-(2-aminoethoxy)ethylamino)-5-(6-cyclopropoxynaphthalen-2-yl)-7H-pyrrolo[2,3-d]pyrimidin-7-yl)-2-methylpropan-2-ol] | > 20 | > 10 | -5.2 | 8.6

Further lines, with some results ahead:

EC50 (PC3) [µM] | EC50 (LNCaP95) [µM] | SMILES | inhibition at 10 µM (PC3) [%] | inhibition at 10 µM (LNCaP95) [%]
10 | 6 | CCOc1ccc2cc(-c3cn(CC(C)(C)O)c4ncnc(NC5CC5)c34)ccc2c1 [Example 41, 1-(4-(cyclopropylamino)-5-(6-ethoxynaphthalen-2-yl)-7H-pyrrolo[2,3-d]pyrimidin-7-yl)-2-methylpropan-2-ol] |  | 
> 20 | 6 | CCc1ccc(-c2ccc(-c3cn(CC(C)(C)OC)c4ncnc(NC)c34)cc2)cc1 [Example 34, 5-(4′-ethylbiphenyl-4-yl)-7-(2-methoxy-2-methylpropyl)-N-methyl-7H-pyrrolo[2,3-d]pyrimidin-4-amine] | 9.1 | 29.7
> 20 | 5 | COc1ccc2cc(-c3cn(CC(C)(C)O)c4ncnc(NC(C)C)c34)ccc2c1 [Example 45, 1-(4-(isopropylamino)-5-(6-methoxynaphthalen-2-yl)-7H-pyrrolo[2,3-d]pyrimidin-7-yl)-2-methylpropan-2-ol] |  | 
> 20 | > 10 | CC(C)(O)Cn1cc(-c2ccc3cc(OC4CC4)ccc3c2)c2c(NCCN)ncnc21 [Example 24, 1-(4-(2-aminoethylamino)-5-(6-cyclopropoxynaphthalen-2-yl)-7H-pyrrolo[2,3-d]pyrimidin-7-yl)-2-methylpropan-2-ol] | 6.7 | 35.1
